Assays:
[1] = Michaelis-Menten constant in polyclonal antibody reactions; type: ADME
[2] = Vmax in polyclonal antibody reactions; type: ADME

C=C/C=C/CCOC(=O)CCC(=O)OCc1ccccc1
Km [1]: 96 µM
Vmax [2]: 0.98 µM/min

Source: ChEMBL document CHEMBL1130461, “Polyclonal catalytic antibody for hetero-cycloaddition of hepta-1,3-diene with ethyl glyoxylate an approach to the synthesis of 2-nonulosonic acid analogs” (Bioorg Med Chem Lett, 1997)
